Test results as given in patent US20100075894A1, “REDUCING ER STRESS IN THE TREATMENT OF OBESITY AND DIABETES” (HARVARD UNIVERSITY, priority 2004, published 2010).

System: mouse embryonic fibroblasts (MEF)
Assay: tunicamycin ER stress response in MEFs (XBP-1 models)
Assay type: cell-based
Description: ER stress responses in XBP-1s overexpressing cells, XBP-1^−/− cells and their controls. (A) Induction of XBP-1s expression upon removal of doxycycline in mouse embryonic fibroblasts (MEF). (B) Southern blot analysis of XBP-1^−/− MEF cells and their WT controls for the wild type (9.4 kb) and targeted (6.5 kb) alleles. (C) PERK phosphorylation (p-PERK) and JNK activity in the XBP-1s overexpressing cells and their control cells (−Dox and +Dox, respectively) upon tunicamycin treatment (Tun, 2 μg/ml). (D) PERK phosphorylation and JNK activity upon low dose tunicamycin treatment (Tun, 0.5 μg/ml) in XBP-1^−/− MEF cells and their WT controls. (E) IRS-1 Ser307 phosphorylation upon tunicamycin treatment (Tun, 2 μg/ml) in the XBP-1s overexpressing and the control cells (−Dox and +Dox, respectively), detected using immunoprecipitation (IP) of IRS-1 followed by immunoblotting (IB) with an IRS-1 phosphoserine 307-specific antibody. […] The ratio of IRS-1 tyrosine phosphorylation to total IRS-1 level was summarized from independent experiments and was presented in the graph. (G) IRS-1 Ser307 phosphorylation upon tunicamycin treatment (Tun, 0.5 μg/ml) in XBP-1^−/− cells and WT controls was detected as described in […]. […] (H) Insulin-stimulated tyrosine phosphorylation of IRS-1 in XBP-1^−/− and WT control cells with or without tunicamycin treatment (Tun, 0.5 μg/ml). The ratio of IRS-1 tyrosine phosphorylation to total IRS-1 level was summarized from independent experiments and presented in the graph. All graphs show mean±SEM from at least 2 independent experiments and statistically significance from the controls is indicated by * with p<0.005.
The transcription factor XBP-1 is a bZIP protein. The spliced or processed form of XBP-1 (XBP-1s) is a key factor in the transcriptional regulation of molecular chaperones and enhances the compensatory UPR (Calfon et al., Nature 415, 92 (2002); Shen et al., Cell 107:893 (2001); Yoshida et al., Cell 107:881 (2001); Lee et al., Mol. Cell Biol. 23:7448 (2003); each of which is incorporated herein by reference). We therefore reasoned that modulation of XBP-1s levels in cells should alter insulin action via its potential impact on the magnitude of the ER stress responses. To test this possibility, we established XBP-1 gain- and loss-of-function cellular models. First, we established an inducible gene expression system where exogenous XBP-1s is expressed only in the absence of tetracycline/doxycycline (FIG. 13A). In parallel, we also studied MEFs derived from XBP-1^−/− mouse embryos (Lee et al., Mol. Cell Biol. 23, 7448 (2003); A. M. Reimold et al., Genes Dev. 14, 152 (2000); Reimold et al., Nature 412, 300 (2001); each of which is incorporated herein by reference) (FIG. 13B). […] Upon induction of XBP-1s expression, there was a dramatic reduction in both PERK phosphorylation and JNK activation following tunicamycin treatment (FIG. 13C). […] Thus alterations in the levels of cellular XBP-1s protein result in alterations in the ER stress response.
Cells: Rat Fao liver cells were cultured with RPMI 1640 (Gibco, Grand Island, N.Y.) containing 10% fetal bovine serum (FBS). At 70-80% confluency, cells were serum depleted for 12 hours before starting the experiments. Reagents including tunicamycin, thapsigargin, and JNK inhibitors were gently added to the culture dishes in the incubator to prevent any environmental stress. JNK inhibitors were added 1 hour before tunicamycin/thapsigargin treatment. The XBP-1^−/− mouse embryonic fibroblasts (MEF) (A. H. Lee, N. N. Iwakoshi, L. H. Glimcher, Mol. Cell. Biol. 23:7448 (2003); incorporated herein by reference), IRE-1α^−/− MEF cells (kindly provided by Dr. David Ron, New York University School of Medicine), and their wild type controls were cultured in Dulbecco's Modified Eagle Medium (DMEM) (Gibco, Grand Island, N.Y.) containing 10% FBS. A similar protocol was followed for experiments in MEF cells, except that the cells were serum depleted for only 6 hours. […]

[1] = fibroblasts without exogenous XBP-1s expression, 2 μg/ml

tunicamycin
ER stress (WT cells, low dose 0.5 μg/ml): failed to stimulate significant ER stress
ER stress response (XBP-1−/− MEFs, low dose 0.5 μg/ml): strong ER stress response
PERK phosphorylation [1]: strong PERK phosphorylation
PERK phosphorylation, peak [1]: 3 to 4 h
PERK phosphorylation, start [1]: 30 min
activation of JNK [1]: rapid and robust activation
